This note sets out measurements from US9809598B2 (Merck Patent GmbH, priority 2014, dated 2017).

In experiment [1] the target is T1, PARP-1 (Homo sapiens, UniProt P09874).
T1 construct: purchased Enzo Life Sciences GmbH, Lörrach, Germany
As to the kind of experiment: PARP-1 autoparsylation assay (HTRF). In kind it is biochemical. The conditions noted are these: His-tagged Parp-1, autoparsylation HTRF. An excerpt: Description of the PARP1 Assay
Biochemical Activity Testing of PARP-1: Autoparsylation Assay
The autoparsylation assay is run in two steps: the enzymatic reaction in which His-tagged Parp-1 transfers biotinylated ADP-ribose/ADP-ribose to itself from biotinylated NAD/NAD as co-substrate and the detection reaction where a time resolved FRET between cryptate labelled anti-His antibody bound to the His tag of the enzyme and Xlent® labelled-streptavidin bound the biotin-parsylation residue is analysed. The autoparsylation activity is detectable directly via the increase in HTRF signal.
The autoparsylation assay is performed as 384-well HTRF® (Cisbio, Codolet, France) assay format in Greiner low volume nb 384-well microtiter plates. […] The ratio of the emission signals is determined. The full value used is the inhibitor-free reaction. The pharmacological zero value used is Olaparib (LClabs, Woburn, US) in a final concentration of 1 μM. The inhibitory values (IC50) are determined using either the program Symyx Assay Explorer® or Condosseo® from GeneData.
Background: Time-resolved FRET reads energy transfer from a long-lived donor to a nearby acceptor.

In experiment [2] the target is T2, TNKS1 (Homo sapiens, UniProt O95271).
T2 construct: GST-tagged Tnks-1 (1023-1327 aa, prepared in-house); made in house
T2 sequence (O95271 1023-1327): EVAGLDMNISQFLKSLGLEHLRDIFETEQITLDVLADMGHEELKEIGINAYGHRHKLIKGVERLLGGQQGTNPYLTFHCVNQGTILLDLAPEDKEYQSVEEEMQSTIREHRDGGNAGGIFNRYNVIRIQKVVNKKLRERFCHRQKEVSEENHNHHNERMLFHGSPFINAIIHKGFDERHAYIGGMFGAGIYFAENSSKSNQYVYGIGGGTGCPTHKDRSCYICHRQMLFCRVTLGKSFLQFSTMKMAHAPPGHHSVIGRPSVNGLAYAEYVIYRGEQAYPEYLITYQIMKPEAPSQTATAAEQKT
As to the kind of experiment: TNKS1 activity ELISA (autoparsylation assay). The experiment is classed as biochemical. The conditions noted are these: GST-tagged Tnks-1 (1023-1327 aa). The procedure:
(§1) Description of the TNKS1 and TNKS2 ELISA Assay
(§2) Biochemical Activity Testing of TNKS 1 and 2: Activity ELISA (Autoparsylation Assay)
(§3) For analysis of autoparsylation activity of TNKS 1 and 2 an activity ELISA iss performed: In the first step GST tagged TNKS is captured on a Glutathione coated plate. Then the activity assay with biotinylated NAD is performed in the absence/presence of the compounds. During the enzymatic reaction GST tagged TNKS transfers biotinylated ADP-ribose to itself from biotinylated NAD as co-substrate. For the detection streptavidin-HRP conjugate is added that binds to the biotinylated TNKS and is thereby captured to the plates. The amount of biotinylated resp. autoparsylated TNKS is detected with a luminescence substrate for HRP. The level of the luminescence signal correlats directly with the amount of autoparsylated TNKS and therefore with activity of TNKS.
(§4) The activity ELISA is performed in 384 well Glutathione coated microtiter plates (Express capture Glutathione coated plate, Biocat, Heidelberg, Germany). The plates are pre-equilibrated with PBS. […] The plates are washed 3 times with PBS-Tween-20. The wells are blocked by incubation at room temperature for 20 minutes with 50 μl blocking buffer (PBS, 0.05% Tween-20, 0.5% BSA). Afterwards the plates are washed 3 times with PBS-Tween-20. […] The reaction is stopped by 3 times washing with PBS-Tween-20. For the detection 50 μl of 20 ng/μl Streptavidin, HRP conjugate (MoBiTec, Göttingen, Germany) in PBS/0.05% Tween-20/0.01% BSA are added and the plates are incubated for 30 minutes at room temperature. After three times washing with PBS-Tween-20 50 μl of SuperSignal ELISA Femto Maximum sensitivity substrate solution (ThermoFisherScientific (Pierce), Bonn, Germany) are added. Following a 1 minute incubation at room temperature luminescence signals are measured with an Envision multimode reader (Perkin Elmer LAS Germany GmbH) at 700 nm. The full value used is the inhibitor-free reaction. […] The inhibitory values (IC50) are determined using either the program Symyx Assay Explorer® or Condosseo® from GeneData.
(An ELISA detects its analyte on a solid surface through an enzyme-linked reagent.)

Experiment [3] concerns the target T3, TNKS2 (Homo sapiens, UniProt Q9H2K2).
T3 construct: GST-tagged Tnks-2 (873-1166 aa, prepared in-house); made in house
As to the kind of experiment: TNKS2 activity ELISA (autoparsylation assay). The conditions noted are these: GST-tagged Tnks-2 (873-1166 aa); read-out: IC50 [M] TNKS2 ELISA. In kind it is biochemical. The procedure:
as §1, §2, §3, §4

In experiment [4] the test system is Tankyrases. The conditions noted are these: read-out: EC50 [M] TNKS cellular assay; DLD1 cells, 24 hours, Axin2 increase.

T1 sequence (P09874 whole entry): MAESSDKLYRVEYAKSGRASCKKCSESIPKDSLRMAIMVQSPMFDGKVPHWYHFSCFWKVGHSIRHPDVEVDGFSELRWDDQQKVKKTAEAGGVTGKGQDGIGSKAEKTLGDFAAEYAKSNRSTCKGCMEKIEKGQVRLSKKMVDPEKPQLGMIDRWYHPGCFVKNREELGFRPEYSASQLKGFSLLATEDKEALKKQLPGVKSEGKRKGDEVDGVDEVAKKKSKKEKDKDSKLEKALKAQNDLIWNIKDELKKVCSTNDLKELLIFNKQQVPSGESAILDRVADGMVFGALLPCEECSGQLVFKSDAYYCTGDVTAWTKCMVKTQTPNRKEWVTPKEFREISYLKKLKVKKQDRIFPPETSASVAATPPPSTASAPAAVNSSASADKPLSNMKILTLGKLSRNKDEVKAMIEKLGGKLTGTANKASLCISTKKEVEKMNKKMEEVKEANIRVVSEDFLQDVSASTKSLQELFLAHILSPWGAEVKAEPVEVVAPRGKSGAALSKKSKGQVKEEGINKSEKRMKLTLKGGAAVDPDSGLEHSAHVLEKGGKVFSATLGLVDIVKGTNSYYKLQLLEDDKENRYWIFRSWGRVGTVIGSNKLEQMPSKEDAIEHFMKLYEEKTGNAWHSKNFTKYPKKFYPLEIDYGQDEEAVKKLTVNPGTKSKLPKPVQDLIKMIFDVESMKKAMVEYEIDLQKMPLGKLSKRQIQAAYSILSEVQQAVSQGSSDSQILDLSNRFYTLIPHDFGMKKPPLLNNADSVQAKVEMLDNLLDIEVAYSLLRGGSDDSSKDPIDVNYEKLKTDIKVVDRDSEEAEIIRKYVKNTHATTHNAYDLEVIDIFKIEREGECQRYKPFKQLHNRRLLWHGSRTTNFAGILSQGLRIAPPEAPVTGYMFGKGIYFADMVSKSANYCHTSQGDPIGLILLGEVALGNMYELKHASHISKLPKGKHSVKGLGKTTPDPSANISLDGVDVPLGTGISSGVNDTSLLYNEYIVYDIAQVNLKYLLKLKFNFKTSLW
T3 sequence (Q9H2K2 873-1166): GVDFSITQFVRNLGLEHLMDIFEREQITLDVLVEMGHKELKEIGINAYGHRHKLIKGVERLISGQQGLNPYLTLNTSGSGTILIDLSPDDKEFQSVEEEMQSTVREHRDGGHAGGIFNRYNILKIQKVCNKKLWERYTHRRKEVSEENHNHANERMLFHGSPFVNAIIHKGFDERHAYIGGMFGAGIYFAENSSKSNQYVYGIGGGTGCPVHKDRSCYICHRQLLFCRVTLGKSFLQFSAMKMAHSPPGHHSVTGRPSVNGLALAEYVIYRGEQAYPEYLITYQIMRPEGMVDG

Turning to `N#Cc1ccc(OC2CCN(C(=O)CCCc3cn4cccc4c(=O)[nH]3)CC2)cc1` [Compound C5, 4-{1-[4-(1-Oxo-1,2-dihydro-pyrrolo[1,2-a]pyrazin-3-yl)-butyryl]-piperidin-4-yloxy}-benzonitrile], the IC50 in experiment [1] turned out to be 4300 nM; in experiment [2], 0.13 nM; in experiment [3] it was 8.8e-09 M. In addition, the EC50 in experiment [4] was 1.2e-07 M.
For `O=C(CCCc1cn2cccc2c(=O)[nH]1)N1CCC(c2nnc(-c3ccccc3)o2)CC1` [Compound C6, 3-{4-Oxo-4-[4-(5-phenyl-[1,3,4]oxadiazol-2-yl)-piperidin-1-yl]-butyl}-2H-pyrrolo[1,2-a]pyrazin-1-one], the results for the IC50 in experiment [1], in experiment [2] and in experiment [3] were 3700 nM, 1.9 nM and 1.3e-09 M, respectively. Besides, the EC50 in experiment [4] worked out at 2.8e-08 M.
The corresponding values for `Cc1ccc2c(=O)[nH]c(CCCC(=O)N3CCC(Oc4ccc(C#N)cc4)CC3)cn12` [Compound C7, 4-{1-[4-(6-Methyl-1-oxo-1,2-dihydro-pyrrolo[1,2-a]pyrazin-3-yl)-butyryl]-piperidin-4-yloxy}-benzonitrile] are 1800 nM, 2.6 nM, 2e-09 M and 4.7e-08 M.
The corresponding values for `COc1ccc(C(=O)C2CCN(C(=O)CCCc3cn4cc(C)cc4c(=O)[nH]3)CC2)cc1` [Compound C8, 3-{4-[4-(4-Methoxy-benzoyl)-piperidin-1-yl]-4-oxo-butyl}-7-methyl-2H-pyrrolo[1,2-a]pyrazin-1-one] are 2900 nM, under 0.1 nM, 1.6e-10 M and 2.8e-09 M.
In the case of `COc1ccc(C(=O)C2CCN(C(=O)CCCc3cn4c(Cl)ccc4c(=O)[nH]3)CC2)cc1` [Compound C11, 6-Chloro-3-{4-[4-(4-methoxy-benzoyl)-piperidin-1-yl]-4-oxo-butyl}-2H-pyrrolo[1,2-a]pyrazin-1-one], the IC50 in experiment [1] came out at 2700 nM; in experiment [2] it was 0.14 nM; in experiment [3], 1.6e-10 M. Besides, the EC50 in experiment [4] came to 9e-10 M.
Regarding `COc1ccc(C(=O)C2CCN(C(=O)CCCc3cn4cccc4c(=O)[nH]3)CC2)cn1` [Compound C15, 3-{4-[4-(6-Methoxy-pyridine-3-carbonyl)-piperidin-1-yl]-4-oxo-butyl}-2H-pyrrolo[1,2-a]pyrazin-1-one], the IC50 in experiment [1] came out at 1700 nM; in experiment [2], 0.23 nM; in experiment [3], 1.7e-10 M. For the same molecule, in experiment [4], the EC50 was determined as 1.5e-09 M.
As for `Cn1cc(C(=O)C2CCN(C(=O)CCCc3cn4cccc4c(=O)[nH]3)CC2)cn1` [Compound C22, 3-{4-[4-(1-Methyl-1H-pyrazole-4-carbonyl)-piperidin-1-yl]-4-oxo-butyl}-2H-pyrrolo[1,2-a]pyrazin-1-one], the IC50 is 5200 nM in experiment [1], 0.25 nM in experiment [2] and 3e-10 M in experiment [3]. Moreover, the EC50 in experiment [4] worked out at 4.5e-09 M.
As for `COc1ccc(C(=O)C2CCN(C(=O)CCCc3cn4c(C)ncc4c(=O)[nH]3)CC2)cc1` [Compound C33, 6-{4-[4-(4-Methoxy-benzoyl)-piperidin-1-yl]-4-oxo-butyl}-3-methyl-7H-imidazo[1,5-a]pyrazin-8-one], the IC50 in experiment [1] amounted to 5500 nM; in experiment [2] it was 0.16 nM; in experiment [3], 1.2e-10 M. In addition, the EC50 in experiment [4] is 1.5e-09 M.
On the same counts, the results for `COc1ccc(C(=O)C2CCN(C(=O)CCCc3nc4c(C)scc4c(=O)[nH]3)CC2)cc1` [Compound C34, 2-{4-[4-(4-Methoxy-benzoyl)-piperidin-1-yl]-4-oxo-butyl}-7-methyl-3H-thieno[3,4-d]pyrimidin-4-one] are 1100 nM, 0.54 nM, 3.3e-10 M and 4.8e-09 M.
Turning to `COc1ccc(C(=O)C2CCN(C(=O)CCCc3nc4c(C)csc4c(=O)[nH]3)CC2)cc1` [Compound C35, 2-{4-[4-(4-Methoxy-benzoyl)-piperidin-1-yl]-4-oxo-butyl}-7-methyl-3H-thieno-[3,2-d]pyrimidin-4-one], the IC50 stood at 130 nM in experiment [1], 0.19 nM in experiment [2] and 1.1e-10 M in experiment [3]. The EC50 in experiment [4] turned out to be 4.2e-10 M.
Turning to `COc1ccc(C(=O)C2CCN(C(=O)CCCc3nn4cccc4c(=O)[nH]3)CC2)cc1` [Compound C36, 2-{4-[4-(4-Methoxy-benzoyl)-piperidin-1-yl]-4-oxo-butyl}-3H-pyrrolo[2,1-f][1,2,4]triazin-4-one], the IC50 was 3500 nM in experiment [1], 0.39 nM in experiment [2] and 2.8e-10 M in experiment [3]. The EC50 in experiment [4] was 4.1e-09 M.
For the molecule `COc1ccc(C(=O)C2CCN(C(=O)CCCc3nn4c(C)ccc4c(=O)[nH]3)CC2)cc1` [Compound C37, 2-{4-[4-(4-Methoxybenzoyl)-piperidin-1-yl]-4-oxo-butyl}-7-methyl-3H-pyrrolo[2,1-f][1,2,4]triazin-4-one], the IC50 is 620 nM in experiment [1], under 0.1 nM in experiment [2] and under 1e-10 M in experiment [3]. Also, the EC50 in experiment [4] was 1e-09 M.
Regarding `COc1ccc(C(=O)C2CCN(C(=O)CCCc3nn4cc(C)cc4c(=O)[nH]3)CC2)cc1` [Compound C38, 2-{4-[4-(4-Methoxy-benzoyl)-piperidin-1-yl]-4-oxo-butyl}-6-methyl-3H-pyrrolo[2,1-f][1,2,4]triazin-4-one], the IC50 was determined as 2400 nM in experiment [1], 0.28 nM in experiment [2] and 1.1e-10 M in experiment [3]. In experiment [4], the EC50 stood at 5.4e-09 M.
With `COc1ccc(C(=O)C2CCN(C(=O)CCCc3nn4cc(F)cc4c(=O)[nH]3)CC2)cc1` [Compound C39, 6-Fluoro-2-{4-[4-(4-methoxy-benzoyl)-piperidin-1-yl]-4-oxo-butyl}-3H-pyrrolo[2,1-f][1,2,4]triazin-4-one], the IC50 in experiment [1] was 2100 nM; in experiment [2], 0.18 nM; in experiment [3], 3.7e-10 M. In addition, in experiment [4], the EC50 was determined as 3.1e-09 M.
As for `COc1ccc(C(=O)C2CCN(C(=O)CCCc3nc4c(ccn4C)c(=O)[nH]3)CC2)cc1` [Compound C40, 2-{4-[4-(4-Methoxy-benzoyl)-piperidin-1-yl]-4-oxo-butyl}-7-methyl-3,7-dihydro-pyrrolo[2,3-d]pyrimidin-4-one], the results for the IC50 in experiment [1], in experiment [2] and in experiment [3] were 1600 nM, 0.17 nM and under 1e-10 M, respectively. Further, the concentration for a half-maximal effect (EC50) in experiment [4] came to 3.2e-09 M.
As for `Cn1ncc2c(=O)[nH]c(CCCC(=O)N3CCC(c4cnc(N)c(C#N)c4)CC3)nc21` [Compound C44, 6-Amino-1′-[4-(1-methyl-4-oxo-4,5-dihydro-1H-pyrazolo[3,4-d]pyrimidin-6-yl)-butyryl]-1′,2′,3′,4′,5′,6′-hexahydro-[3,4′]bipyridinyl-5-carbonitrile], the IC50 in experiment [1] was 18000 nM; in experiment [2] it was 1.6 nM; in experiment [3], 9.7e-10 M. Further, in experiment [4], the EC50 is 4e-07 M.
Consider `Cn1ncc2c(=O)[nH]c(CCCC(=O)N3CCC(c4nnc(-c5ccccc5)o4)CC3)nc21` [Compound C46, 1-Methyl-6-{4-oxo-4[4-(5-phenyl-[1,3,4]oxadiazol-2-yl)-piperidin-1-yl]-butyl}-1,5-dihydro-pyrazolo[3,4-d]pyrimidin-4-one], for which the results for the IC50 in experiment [1], in experiment [2] and in experiment [3] were 7200 nM, 2.9 nM and 2.4e-09 M, respectively. Besides, the EC50 in experiment [4] came to 6.6e-08 M.
On the same counts, the results for `Cn1ncc2c(=O)[nH]c(CCCC(=O)N3CCC(Oc4ccc(C#N)cc4)CC3)nc21` [Compound C47, 4-{1-[4-(1-Methyl-4-oxo-4,5-dihydro-1H-pyrazolo[3,4-d]pyrimidin-6-yl)-butyryl]-piperidin-4-yloxy}-benzonitrile] are 4400 nM, 110 nM, 4.1e-08 M and 4.5e-07 M.

As a reminder, the IC50 is the concentration that gives 50% inhibition. Usually EC50 stands for the midpoint of the concentration-response curve.
